Results as given in patent US8946199B2, “Co-administration of steroids and Zoledronic acid to prevent and treat side effects from Zoledronic acid infusion” (priority 2010, dated 2015).

Tests used:
[1] = administration of Zometa; syndrome of fever, nausea, bone pain, arthralgia, myalgia, chills; cited from earlier work
[2] = in vivo; cited from earlier work
[3] = patients with osteoporosis; Zoledronic Acid alone, 3 patients
Method: In theory, co-administration of a steroid for a short duration could decrease inflammation and therefore the incidence of ONJ. […] A study comparing the incidence of PDS with Zoledronic acid with a Zoledronic Acid and steroid combination is, however, feasible and such a study has been undertaken.
Eight patients with osteoporosis were treated with Zoledronic Acid alone (3 patients) or with the combination of steroids (oral prednisone, 3, and intravenous prednisolone, 2) with Zoledronic Acid.

O=P(O)(O)C(O)(Cn1ccnc1)P(=O)(O)O [Zoledronic Acid]
patients affected by post-dosing syndrome (PDS) [1]: ≤ 44% | t1/2α [2]: 14.4 min | patients who suffered from PDS [3]: All three
